Measured values as given in US20060287316A1, “METHOD FOR IMPROVING PHARMACOKINETICS OF PROTEASE INHIBITORS AND PROTEASE INHIBITOR PRECURSORS” (priority 2005, published 2006).
In brackets after ≈: the same amount, converted by molar mass. Several values for one entry are separate records, joined by “and”; a condition that tells them apart may be missing. Identical values can stand only once. Like-named read-outs stand apart in the source and are kept apart here.

Tests used:
[1] = Effect of CYP450 inhibitors on metabolism of HIV-1 protease inhibitors in human liver microsomes; type: in vitro ADME
Procedure: The effect of CYP450 inhibitors on the metabolism of HIV-1 anti-protease was tested in human liver microsomes.

[2] = Pharmacokinetics of PL-100 and PL-461 in rats; type: in vivo, Sprague Dawley rats (Rattus norvegicus); conditions: 5 mg/kg i.v., female rats
Procedure: Animal tested are Sprague Dawley rats (species Rattus norvegicus) of 6-7 weeks old at the start of dosing and were obtained from Charles River (Montreal, Canada). The study usually comprises about 6 animals per groups. […] The rats were fasted 3 h. before dosing and 3 h. after dosing. The formulations are prepared as indicated below. The solutions are stable at room temperature over a week and are covered with aluminum foil to avoid lights. […] The dosing volume for all formulations is 2 mL per kg body weight. Blood sample was collected at 15 min, 30 min, 45 min, 1 […] after the dosing. Blood samples were centrifuged to separate the plasma and separated plasma samples were placed into cryovials and frozen at -80° C. for further analysis. Plasma samples together with standards and quality control samples were treated by protein precipitation and then analyzed by HPLC-MS. […] The PK profile was obtained by administration of the test drugs; PL-100 and PL-461 in rats. […] The pharmacokinetic parameters of PL-100 and PL-461 in rats** was compared.

[3] = system: 63 HIV isolates with reduced susceptibility to all approved protease inhibitors; type: cell-based, HIV-1; conditions: for % viral strains with EC95s ≦ 200 ng/ml / % viral strains with EC95s ≦ 630 ng/ml: protein-binding adjusted EC95
Text: The cross-resistance profile of PL-100 against 63 HIV isolates with reduced susceptibility to all approved protease inhibitors (P is) including atazanavir was thus tested.
The panel of 63 viral strains was selected based on the following rationale: 1) High-level loss of susceptibility to specific P is; 2) High-level loss of susceptibility to multiple P is; 3) Good representation of the primary mutations. This panel consists of resistant viruses from highly PI-experienced patients with high-level PI resistance.
The genotype of these viruses encompasses a wide variety of mutational patterns. We particularly looked for the following primary PI mutations: D30N, L33F/I, M461/L, G48V, I50L/V, V82A/F/S/T, I84V and L90M as defined by the International AIDS Society (IAS)-USA.
The dark cells indicate a […], the grey cells indicate FC values of 2.5≦FC<10 and the white cells indicate a FC value of; 0≦FC<2.5. The results of cross-resistance profile are further illustrated in the graph of FIG. 1.
In the cross-resistance profiling studies against the 63 resistant strains mentioned herein, EC95 of PL-100 was determined against each strain. The median EC95 represents the concentration required to inhibit 95% of the viral replication of 50% diverse drug-resistant HIV-1 variants tested. Table 8 illustrates the percentage of resistant strains tested with protein-binding adjusted EC95s≦200 ng/ml. The resistant strains are grouped by the number of primary mutations they have.
The EC95 of PL-100 was determined against each of the 63 resistant strains indicated herein. Table 9 illustrates the percentage of resistant strains tested with protein-binding adjusted EC95s≦630 ng/ml. The resistant strains are grouped by the number of primary mutations they have.

Water solubility = type: physicochemical; conditions: water, pH 7.5, aqueous buffer
CYP3A4/5 = experiment: Inhibition of CYP450 sub-families; type: biochemical; conditions: FIG. 10
[4] = system: laboratory adapted HIV strain (NL4-3); experiment: microbe, parasite or virus in culture
Procedure: Briefly, the antiviral activity of PL-100 was determined using MT4 cells infected with a laboratory adapted HIV strain (NL4-3). For comparison, seven approved protease inhibitors (PIs) were tested in parallel.
The effect of 40% human serum on the antiviral activity of PL-100 in MT4 cells infected with NL4-3 was therefore evaluated.

[5] = Cytotoxicity in the same cell culture system; type: cell-based; conditions: human, MT4 cells
Procedure: Cytotoxicity of PL-100 and other P is was evaluated in the same cell culture system. The selectivity index (SI) is the ratio of cytotoxicity (CC50) to antiviral activity (EC50). The selective index is similar to the therapeutic index but relates to in vitro studies.

[6] = Sprague Dawley, rat, plasma, iv
[7] = 63 diverse, multi-PI-resistant strains
[8] = 63 diverse, multi-PI-resistant strains, FC in IC50 vs NL-4.3
[9] = strains with 0 primary PI mutations
[10] = strains with 1 primary PI mutation
[11] = strains with 2 primary PI mutations
[12] = strains with 3 primary PI mutations
[13] = strains with 4 primary PI mutations
[14] = strains with 5-6 primary PI mutations

COC(=O)N[C@H](C(=O)NCCCC[C@@H](CO)N(CC(C)C)S(=O)(=O)c1ccc(N)cc1)C(c1ccccc1)c1ccccc1 [PL-100, (1S,5S)-(1-{5-[(4-amino-benzenesulfonyl)-isobutyl-amino]-6-hydroxy-hexylcarbamoyl}-2,2-diphenyl-ethyl)-carbamic acid methyl ester]
Effect of CYP450 inhibitor on metabolism ([1]; with ketoconazole and sulfaphenazole (FIG. 6)): able to increase the PK of PL-100
Effect of CYP450 inhibitor on metabolism ([1]; with ritonavir (FIG. 6)): most effective combination
Cl_F [2]: 58.3 mL/min/kg
Tlast [2]: 6 h
Vz_F [2]: 6.1 L/kg
λz [2]: 0.52 h⁻¹
concentration at 6 hr ([2]; Sprague Dawley, rat, plasma, intravenous, read-out: Clast): 44 ng/mL
AUC(0-inf) [2, 6]: 1430 ng·h/mL
AUC(0-t) [2, 6]: 1370 ng·h/mL
Cmax [2, 6]: 1800 ng/mL
Tmax [2, 6]: 6 min
half-life ([2]; Sprague Dawley, rat, plasma, iv, read-out: T½ (converted)): 72 min
% FC < 2.5 [3, 7]: 37%
% FC < 10 [3, 7]: 76%
% FC > 50 [3, 7]: 3%
Mean FC [3, 8]: 8.7
Median FC [3, 8]: 3.6
% viral strains with EC95s ≦ 200 ng/ml [3, 9]: 100%
% viral strains with EC95s ≦ 630 ng/ml [3, 9]: 100%
% viral strains with EC95s ≦ 200 ng/ml [3, 10]: 100%
% viral strains with EC95s ≦ 630 ng/ml [3, 10]: 100%
% viral strains with EC95s ≦ 200 ng/ml [3, 11]: 36%
% viral strains with EC95s ≦ 630 ng/ml [3, 11]: 82%
% viral strains with EC95s ≦ 200 ng/ml [3, 12]: 23%
% viral strains with EC95s ≦ 630 ng/ml [3, 12]: 55%
% viral strains with EC95s ≦ 200 ng/ml [3, 13]: 0%
% viral strains with EC95s ≦ 630 ng/ml [3, 13]: 29%
% viral strains with EC95s ≦ 200 ng/ml [3, 14]: 0%
% viral strains with EC95s ≦ 630 ng/ml [3, 14]: 0%
Fold change in IC50 vs. Reference ([3]; sample O3-129578, 46I/82T/84V, panel ID 11): 1.2
Fold change in IC50 vs. Reference ([3]; sample O3-129585, 48V/54V/82A/90M, panel ID 26): 1.9
Fold change in IC50 vs. Reference ([3]; sample O3-129586, 30N/88D/90M, panel ID 28): 1.4
Fold change in IC50 vs. Reference ([3]; sample O3-148709 (non-B subtype), 32I/47A, panel ID 1): 1.4
Fold change in IC50 vs. Reference ([3]; sample O3-1129583, 84V/90M, panel ID 21): 2.3
Fold change in IC50 vs. Reference ([3]; sample O4-148712, 46I/88S, panel ID 122): 0.8
Fold change in IC50 vs. Reference ([3]; sample O4-148712, 46I/88S, panel ID 124): 1.1
Fold change in IC50 vs. Reference ([3]; sample O4-148713, 46I/88S, panel ID 123): 0.4
Fold change in IC50 vs. Reference ([3]; sample O4-148716, 33F/54L/88S/90M, panel ID 10): 1.7
Fold change in IC50 vs. Reference ([3]; sample O4-148721, 32I/46I/47V/50L, panel ID 127): 1.1
Fold change in IC50 vs. Reference ([3]; sample O4-148725, 32I/46L/47V/84V, panel ID 53): 0.6
Fold change in IC50 vs. Reference ([3]; sample O4-148739, 48V/54V/82A/90M, panel ID 138): 1.1
Fold change in IC50 vs. Reference ([3]; sample O4-148742, 46L/48V/82A/84V, panel ID 94): 1.2
Fold change in IC50 vs. Reference ([3]; sample O4-148748, 37S/41K/70E, panel ID 115): 0.9
Fold change in IC50 vs. Reference ([3]; sample O4-148749, 37T/41K/70E, panel ID 151): 1.9
Fold change in IC50 vs. Reference ([3]; sample O4-148751, 54V/84V, panel ID 171): 0.8
Fold change in IC50 vs. Reference ([3]; sample O4-148752, 54V/84V, panel ID 152): 1.2
solubility (Water solubility): 79 µg/mL (≈ 126 µM)
Inhibition of CYP3A4/5 (CYP3A4/5): inhibits CYP3A4/5
EC50 ([4]; Human immunodeficiency virus 1, NL43, MT4, MT4 cells infected with NL4-3): 16 nM
EC50 ([4]; Human immunodeficiency virus 1, NL43, MT4, culture condition 10% FBS): 18 nM
EC50 ([4]; Human immunodeficiency virus 1, NL43, MT4, culture condition 10% FBS + 40% human serum): 100 nM
Fold Change in EC50 ([4]; culture condition 10% FBS): 1.0
Fold Change in EC50 ([4]; culture condition 10% FBS + 40% human serum): 6 and 5.9
SI (CC50/EC50) ([4]; ratio of cytotoxicity (CC50) to antiviral activity (EC50)): 2,063
CC50 [5]: 33000 nM
